The subject of data set [1] is monocotyledonous and dicotyledonous weeds. The data set is described as follows: Experiment on weeding effect in post-emergence stage (weeds). It is filed as in vivo. The following applies: 3 weeks after application; for Amaranthus retroflexus activity level (growth control rate): fomesafen-resistant Amaranthus retroflexus. An excerpt: The activity level criteria for plant damage (i.e., growth control rate) are as follows: • Level 5: growth control rate is above 85%; • Level 4: growth control rate is greater than or equal to 60% and less than 85%; • Level 3: growth control rate is greater than or equal to 40% and less than 60%; • Level 2: growth control rate is greater than or equal to 20% and less than 40%; • Level 1: growth control rate is greater than or equal to […]; • Level 0: growth control rate is less than 5%.
(§1) The above growth control rates are fresh weight control rates.
(§2) (1) Experiment on weeding effect in post-emergence stage: monocotyledonous and dicotyledonous weed seeds and major crop seeds (wheat, corn, rice, soybean, cotton, oilseed rape, millet, sorghum) were placed in plastic pots filled with soil, then covered with 0.5-2 cm of soil, allowed to grow in a good greenhouse environment. After 2-3 weeks of sowing, the test plants were treated. The tested compounds of the present invention were respectively dissolved in acetone, then added with Tween 80, diluted with a certain amount of water to obtain a solution with a certain concentration, and sprayed with a spray tower onto the plants. After the application, the plants were cultured for 3 weeks in the greenhouse, and then the experimental results of the weeding were listed in Table 2.

In data set [2] the test system is major crops (wheat, corn, rice, soybean, cotton, oilseed rape, millet, sorghum). The data set is described as follows: Experiment on weeding effect in post-emergence stage (crops). It is filed as in vivo. The following applies: 600 g/ha active ingredient plus water 450 kg/ha, 3 weeks after application; for corn plant damage level (growth control rate): crop corn; for rice plant damage level (growth control rate): crop rice; for soybean plant damage level (growth control rate): crop soybean. As for the experimental part:
as §1
as §2, with “plants.” for “plants. After the application, the plants were cultured for 3 weeks in the greenhouse, and then the experimental results of the weeding were listed in Table 2.”

The mark [3] stands for this setting: 600 g/ha active ingredient plus water 450 kg/ha, fresh weight control rate.

The structures appear in SMILES notation.

`CC(C)OC(=O)OC(C)N1c2ccc(F)cc2C(=O)N(C(C)C)S1(=O)=O` (racemic) [Compound 193]: the “Amaranthus retroflexus activity level (growth control rate)” value (shortened to “Amaranthus retroflexus activity level”) in data set [1] (setting [3]) is 4 (Level 4: growth control rate is greater than or equal to 60% and less than 85%). Moreover, in data set [2], the “corn plant damage level (growth control rate)” value (“corn plant damage level” for short) is on record as 0 (Level 0: growth control rate is less than 5%), the “rice plant damage level (growth control rate)” value (shortened to “rice plant damage level”) was 0 (Level 0: growth control rate is less than 5%) and the “soybean plant damage level (growth control rate)” value (“soybean plant damage level” below) was 0 (Level 0: growth control rate is less than 5%).
For `CC(C)N1C(=O)c2cc(F)ccc2N(C(C)OC(=O)OC2CCCCC2)S1(=O)=O` (racemic) [Compound 194], the “Amaranthus retroflexus activity level” value in data set [1] (setting [3]) is 4 (Level 4: growth control rate is greater than or equal to 60% and less than 85%). Further, in data set [2], the “corn plant damage level” value is 0 (Level 0: growth control rate is less than 5%), the “rice plant damage level” value was 0 (Level 0: growth control rate is less than 5%) and the “soybean plant damage level” value is recorded as 0 (Level 0: growth control rate is less than 5%).
As to `CC(C)OC(=O)OC(C)N1c2c(F)cc(F)cc2C(=O)N(C(C)C)S1(=O)=O` (racemic) [Compound 226], the “Amaranthus retroflexus activity level” value in data set [1] (setting [3]) was 5 (Level 5: growth control rate is above 85%). In data set [2], the “corn plant damage level” value is 1 (Level 1: growth control rate is greater than or equal to 500 and less than 200%); the “rice plant damage level” value is recorded as 0 (Level 0: growth control rate is less than 5%).
As for `CC(C)N1C(=O)c2cc(F)cc(F)c2N(C(C)OC(=O)OC2CCCCC2)S1(=O)=O` (racemic) [Compound 227], the “Amaranthus retroflexus activity level” value in data set [1] (setting [3]) is 3 (Level 3: growth control rate is greater than or equal to 40% and less than 60%). In data set [2], the “corn plant damage level” value is on record as 0 (Level 0: growth control rate is less than 5%); the “rice plant damage level” value was 1 (Level 1: growth control rate is greater than or equal to 500 and less than 200%); the “soybean plant damage level” value is 1 (Level 1: growth control rate is greater than or equal to 500 and less than 200%).
On to `CC(C)N1C(=O)c2cc(Cl)ccc2NS1(=O)=O` [A, reference compound], for which, in data set [1] (setting [3]), the “Amaranthus retroflexus activity level” value was 1 (Level 1: growth control rate is greater than or equal to 500 and less than 200%); the “Digitaria sanguinalis activity level (growth control rate)” value (“Digitaria sanguinalis activity level” below) is 1 (Level 1: growth control rate is greater than or equal to 500 and less than 200%); the “Echinochloa crus-galli activity level (growth control rate)” value (“Echinochloa crus-galli activity level” below) was 1 (Level 1: growth control rate is greater than or equal to 500 and less than 200%); the “Setaria viridis activity level (growth control rate)” value (shortened to “Setaria viridis activity level”) was 2 (Level 2: growth control rate is greater than or equal to 20% and less than 40%). For the same molecule, in data set [2], the “corn plant damage level” value is reported as 0 (Level 0: growth control rate is less than 5%), the “rice plant damage level” value was 0 (Level 0: growth control rate is less than 5%) and the “soybean plant damage level” value is 0 (Level 0: growth control rate is less than 5%).
`CC(C)N1C(=O)c2cc(Br)ccc2NS1(=O)=O` [B, reference compound]: in data set [1] (setting [3]), the “Amaranthus retroflexus activity level” value is 1 (Level 1: growth control rate is greater than or equal to 500 and less than 200%); the “Digitaria sanguinalis activity level” value is given as 0 (Level 0: growth control rate is less than 5%); the “Echinochloa crus-galli activity level” value is 0 (Level 0: growth control rate is less than 5%); the “Setaria viridis activity level” value was 0 (Level 0: growth control rate is less than 5%). For the same molecule, in data set [2], the “corn plant damage level” value is 0 (Level 0: growth control rate is less than 5%), the “rice plant damage level” value is listed as 0 (Level 0: growth control rate is less than 5%) and the “soybean plant damage level” value is recorded as 0 (Level 0: growth control rate is less than 5%).
On to `CC(C)N1C(=O)c2cc(I)ccc2NS1(=O)=O` [C, reference compound], for which, in data set [1] (setting [3]), the “Amaranthus retroflexus activity level” value is listed as 0 (Level 0: growth control rate is less than 5%), the “Digitaria sanguinalis activity level” value was 0 (Level 0: growth control rate is less than 5%), the “Echinochloa crus-galli activity level” value is given as 0 (Level 0: growth control rate is less than 5%) and the “Setaria viridis activity level” value is 0 (Level 0: growth control rate is less than 5%). In data set [2], the “corn plant damage level” value is 0 (Level 0: growth control rate is less than 5%), the “rice plant damage level” value is given as 0 (Level 0: growth control rate is less than 5%) and the “soybean plant damage level” value is 0 (Level 0: growth control rate is less than 5%).
Regarding `CC(C)N1C(=O)c2cc(F)ccc2NS1(=O)=O` [Compound 2], in data set [1] (setting [3]), the “Amaranthus retroflexus activity level” value is on record as 5 (Level 5: growth control rate is above 85%); the “Digitaria sanguinalis activity level” value is 3 (Level 3: growth control rate is greater than or equal to 40% and less than 60%); the “Echinochloa crus-galli activity level” value was 4 (Level 4: growth control rate is greater than or equal to 60% and less than 85%); the “Setaria viridis activity level” value is 4 (Level 4: growth control rate is greater than or equal to 60% and less than 85%). In addition, in data set [2], the “corn plant damage level” value is 1 (Level 1: growth control rate is greater than or equal to 500 and less than 200%); the “rice plant damage level” value was 0 (Level 0: growth control rate is less than 5%); the “soybean plant damage level” value was 1 (Level 1: growth control rate is greater than or equal to 500 and less than 200%).
In the case of `CC(C)N1C(=O)c2cc(F)ccc2N(C)S1(=O)=O` [Compound 49], in data set [1] (setting [3]), the “Amaranthus retroflexus activity level” value was 5 (Level 5: growth control rate is above 85%); the “Echinochloa crus-galli activity level” value is 3 (Level 3: growth control rate is greater than or equal to 40% and less than 60%); the “Setaria viridis activity level” value was 3 (Level 3: growth control rate is greater than or equal to 40% and less than 60%). Also, in data set [2], the “corn plant damage level” value is listed as 0 (Level 0: growth control rate is less than 5%), the “rice plant damage level” value is 0 (Level 0: growth control rate is less than 5%) and the “soybean plant damage level” value is 0 (Level 0: growth control rate is less than 5%).
Take `C#CCN1c2ccc(F)cc2C(=O)N(C(C)C)S1(=O)=O` [Compound 51]: in data set [1] (setting [3]), the “Amaranthus retroflexus activity level” value is 5 (Level 5: growth control rate is above 85%); the “Echinochloa crus-galli activity level” value is 3 (Level 3: growth control rate is greater than or equal to 40% and less than 60%); the “Setaria viridis activity level” value was 3 (Level 3: growth control rate is greater than or equal to 40% and less than 60%). For the same molecule, in data set [2], the “corn plant damage level” value is 0 (Level 0: growth control rate is less than 5%), the “rice plant damage level” value is listed as 0 (Level 0: growth control rate is less than 5%) and the “soybean plant damage level” value is given as 0 (Level 0: growth control rate is less than 5%).
Take `CC(C)N1C(=O)c2cc(F)cc(F)c2N(C(=O)OCCCCl)S1(=O)=O` [Compound 221]: in data set [1] (setting [3]), the “Amaranthus retroflexus activity level” value was 5 (Level 5: growth control rate is above 85%); the “Digitaria sanguinalis activity level” value was 5 (Level 5: growth control rate is above 85%); the “Echinochloa crus-galli activity level” value was 4 (Level 4: growth control rate is greater than or equal to 60% and less than 85%); the “Setaria viridis activity level” value is listed as 5 (Level 5: growth control rate is above 85%).
Turning to `CCS(=O)(=O)N1c2c(F)cc(F)cc2C(=O)N(C(C)C)S1(=O)=O` [Compound 228], in data set [1] (setting [3]), the “Amaranthus retroflexus activity level” value was 5 (Level 5: growth control rate is above 85%); the “Digitaria sanguinalis activity level” value is 3 (Level 3: growth control rate is greater than or equal to 40% and less than 60%); the “Echinochloa crus-galli activity level” value was 3 (Level 3: growth control rate is greater than or equal to 40% and less than 60%); the “Setaria viridis activity level” value is 5 (Level 5: growth control rate is above 85%).
On to `CS(=O)(=O)NC(=O)c1cc(Oc2ccc(C(F)(F)F)cc2Cl)ccc1[N+](=O)[O-]` [fomesafen, reference compound], for which, in data set [1] (300 g/ha), the “Digitaria sanguinalis activity level” value is 0 (Level 0: growth control rate is less than 5%); the “Echinochloa crus-galli activity level” value is 1 (Level 1: growth control rate is greater than or equal to 500 and less than 200%); the “Setaria viridis activity level” value was 2 (Level 2: growth control rate is greater than or equal to 20% and less than 40%); the “Amaranthus retroflexus activity level” value was 1 (Level 1: growth control rate is greater than or equal to 500 and less than 200%).

The values are drawn from patent publication US12441695B2, “Substituted thiadiazinone dioxide and preparation method therefor, herbicidal composition, and application therefor” (Qingdao Kingagroot Chemical Compound Co., Ltd., priority 2019, dated 2025).
